Results published in patent US12492173B2, “Herbicidal substituted N-tetrazolyl aryl carboxamides” (Bayer Aktiengesellschaft, priority 2019, dated 2025).

Assays:
Assay type in all cases: in vivo
Amaranthus retroflexus [1] = experiment: Post-emergence herbicidal action, AMARE; set-up: key: % herbicidal action vs untreated; 100 = plants died, 0 = like control; settings: for herbicidal action AMARE: Dosage 80 g/ha; for Herbicidal action against AMARE: post-emergence, dosage 80 g/ha
Description: (§1) [table] 2. Post-Emergence Herbicidal Action Against Harmful Plants Seeds of monocotyledonous and dicotyledonous weed and crop plants are laid out in sandy loam soil in wood-fiber pots, covered with soil and cultivated in a greenhouse under good growth conditions. 2 to 3 weeks after sowing, the test plants are treated at the one-leaf stage. The compounds of the invention, formulated in the form of wettable powders (WP) or as emulsion concentrates (EC), are then sprayed onto the green parts of the plants in the form of an aqueous suspension or emulsion at a water application rate equating to 600 to 800 l/ha, with addition of 0.2% wetting agent. After the test plants have been left to stand in the greenhouse under optimal growth conditions for about 3 weeks, the action of the preparations is assessed visually in comparison to untreated controls (herbicidal action in percent (%): 100% activity=the plants have died, 0% activity=like control plants). […] The tables below illustrate, in an exemplary manner, the post-emergence herbicidal action of the compounds according to the invention, the herbicidal activity being stated in percent. In the experiments that follow, herbicidal action of numerous inventive compounds and the known compounds that are structurally closest from D1 (WO 2012/028579 A1) and D2 (WO 2018/202535 A1) were compared under the above-specified conditions by the pre-emergence and post-emergence method. The example numbers given in the tables relate to the compounds disclosed in the respective documents. In addition to the compounds disclosed in D1 and D2, the following compounds V-1 to V-14 that are encompassed by D1 or D2 but are not compounds specified therein were used in the comparative experiments: • V-1: 2-(methylsulfanyl)-3-(methylsulfinyl)-N-(1-methyl-1H-tetrazol-5-yl)-4-(trifluoromethyl)benzamide • V-2: 2-(methylsulfanyl)-3-(methylsulfonyl)-N-(1-methyl-1H-tetrazol-5-yl)-4-(trifluoromethyl)benzamide • V-3: 2,3-bis(ethylsulfanyl)-N-(1-methyl-1H-tetrazol-5-yl)-4-(trifluoromethyl)benzamide • V-4: 2-chloro-3-(ethylsulfanyl)-N-(1-methyl-1H-tetrazol-5-yl)-4-(trifluoromethyl)benzamide • V-5: 2-chloro-4-iodo-3-(methylsulfanyl)-N-(1-methyl-1H-tetrazol-5-yl)benzamide • V-6: 2-chloro-4-iodo-3-(methylsulfinyl)-N-(1-methyl-1H-tetrazol-5-yl)benzamide • V-7: 2-chloro-4-iodo-3-(methylsulfonyl)-N-(1-methyl-1H-tetrazol-5-yl)benzamide • V-8: 2-bromo-3-(methylsulfanyl)-N-(1-methyl-1H-tetrazol-5-yl)-4-(trifluoromethyl)benzamide • V-9: 2-bromo-3-(methylsulfinyl)-N-(1-methyl-1H-tetrazol-5-yl)-4-(trifluoromethyl)benzamide • V-10: 2-bromo-3-(methylsulfonyl)-N-(1-methyl-1H-tetrazol-5-yl)-4-(trifluoromethyl)benzamide • V-11: 2-bromo-3-(ethylsulfanyl)-N-(1-methyl-1H-tetrazol-5-yl)-4-(trifluoromethyl)benzamide • V-12: 2-bromo-3-(ethylsulfinyl)-N-(1-methyl-1H-tetrazol-5-yl)-4-(trifluoromethyl)benzamide • V-13: 2-bromo-3-(ethylsulfonyl)-N-(1-methyl-1-1H-tetrazol-5-yl)-4-(trifluoromethyl)benzamide • V-14: 2-cyclopropyl-3-(ethylsulfanyl)-N-(1-methyl-1H-tetrazol-5-yl)-4-(trifluoromethyl)benzamide Herbicidal Pre-Emergence Action: […]

Amaranthus retroflexus [2] = experiment: Pre-emergence herbicidal action, AMARE; set-up: key to Herbicidal action against AMARE: % activity: 100 = plants have died, 0 = like control plants; settings: for herbicidal action AMARE: dosage 320 g/ha
Text: (§2) 1. Pre-Emergence Herbicidal Action Against Harmful Plants Seeds of monocotyledonous and dicotyledonous weed plants and crop plants are laid out in sandy loam soil in wood-fiber pots and covered with soil. The compounds of the invention, formulated in the form of wettable powders (WP) or as emulsion concentrates (EC), are then applied to the surface of the covering soil in the form of an aqueous suspension or emulsion at a water application rate equating to 600 to 800 l/ha, with addition of 0.2% wetting agent. After the treatment, the pots are placed in a greenhouse and kept under good growth conditions for the trial plants. The damage to the test plants is scored visually after a test period of 3 weeks by comparison with untreated controls (herbicidal activity in percent (%): 100% activity=the plants have died, 0% activity=like control plants). […] The tables below illustrate, in an exemplary manner, the […] herbicidal action of the compounds according to the invention, the herbicidal activity being stated in percent. [table] In the experiments that follow, herbicidal action of numerous inventive compounds and the known compounds that are structurally closest from D1 (WO 2012/028579 A1) and D2 (WO 2018/202535 A1) were compared under the above-specified conditions by the pre-emergence and post-emergence method. The example numbers given in the tables relate to the compounds disclosed in the respective documents. In addition to the compounds disclosed in D1 and D2, the following compounds V-1 to V-14 that are encompassed by D1 or D2 but are not compounds specified therein were used in the comparative experiments: • V-1: 2-(methylsulfanyl)-3-(methylsulfinyl)-N-(1-methyl-1H-tetrazol-5-yl)-4-(trifluoromethyl)benzamide • V-2: 2-(methylsulfanyl)-3-(methylsulfonyl)-N-(1-methyl-1H-tetrazol-5-yl)-4-(trifluoromethyl)benzamide • V-3: 2,3-bis(ethylsulfanyl)-N-(1-methyl-1H-tetrazol-5-yl)-4-(trifluoromethyl)benzamide • V-4: 2-chloro-3-(ethylsulfanyl)-N-(1-methyl-1H-tetrazol-5-yl)-4-(trifluoromethyl)benzamide • V-5: 2-chloro-4-iodo-3-(methylsulfanyl)-N-(1-methyl-1H-tetrazol-5-yl)benzamide • V-6: 2-chloro-4-iodo-3-(methylsulfinyl)-N-(1-methyl-1H-tetrazol-5-yl)benzamide • V-7: 2-chloro-4-iodo-3-(methylsulfonyl)-N-(1-methyl-1H-tetrazol-5-yl)benzamide • V-8: 2-bromo-3-(methylsulfanyl)-N-(1-methyl-1H-tetrazol-5-yl)-4-(trifluoromethyl)benzamide • V-9: 2-bromo-3-(methylsulfinyl)-N-(1-methyl-1H-tetrazol-5-yl)-4-(trifluoromethyl)benzamide • V-10: 2-bromo-3-(methylsulfonyl)-N-(1-methyl-1H-tetrazol-5-yl)-4-(trifluoromethyl)benzamide • V-11: 2-bromo-3-(ethylsulfanyl)-N-(1-methyl-1H-tetrazol-5-yl)-4-(trifluoromethyl)benzamide • V-12: 2-bromo-3-(ethylsulfinyl)-N-(1-methyl-1H-tetrazol-5-yl)-4-(trifluoromethyl)benzamide • V-13: 2-bromo-3-(ethylsulfonyl)-N-(1-methyl-1-1H-tetrazol-5-yl)-4-(trifluoromethyl)benzamide • V-14: 2-cyclopropyl-3-(ethylsulfanyl)-N-(1-methyl-1H-tetrazol-5-yl)-4-(trifluoromethyl)benzamide Herbicidal Pre-Emergence Action: […]

Veronica persica [3] = experiment: Pre-emergence herbicidal action, VERPE; settings: dosage 320 g/ha
Text: as §2

Abutilon theophrasti [4] = experiment: Post-emergence herbicidal action, ABUTH; set-up: key: % herbicidal action vs untreated; 100 = plants died, 0 = like control; settings: for herbicidal action ABUTH: Dosage 80 g/ha; for Herbicidal action against ABUTH: post-emergence, dosage 80 g/ha
Description: as §1

Pharbitis purpurea = experiment: Post-emergence herbicidal action, PHBPU; settings: for herbicidal action PHBPU: Dosage 80 g/ha; for Herbicidal action against PHBPU: post-emergence, dosage 80 g/ha
Description: as §1

Veronica persica [5] = experiment: Post-emergence herbicidal action, VERPE; set-up: key: % herbicidal action vs untreated; 100 = plants died, 0 = like control; settings: for herbicidal action VERPE: Dosage 80 g/ha; for Herbicidal action against VERPE: post-emergence, dosage 80 g/ha
Description: as §1

Viola tricolor [6] = experiment: Post-emergence herbicidal action, VIOTR; set-up: key: % herbicidal action vs untreated; 100 = plants died, 0 = like control; settings: for herbicidal action VIOTR: Dosage 80 g/ha; for Herbicidal action against VIOTR: post-emergence
Description: as §1

Matricaria inodora [7] = experiment: Pre-emergence herbicidal action, MATIN; settings: dosage 320 g/ha
Text: as §2

Setaria viridis = experiment: Post-emergence herbicidal action, SETVI; set-up: key: % herbicidal action vs untreated; 100 = plants died, 0 = like control; settings: for herbicidal action SETVI: Dosage 80 g/ha; for Herbicidal action against SETVI: post-emergence, dosage 80 g/ha
Description: as §1

Matricaria inodora [8] = experiment: Post-emergence herbicidal action, MATIN; set-up: key: % herbicidal action vs untreated; 100 = plants died, 0 = like control; settings: for herbicidal action MATIN: Dosage 80 g/ha; for Herbicidal action against MATIN: post-emergence, dosage 80 g/ha
Description: as §1

Echinochloa crus-galli [9] = experiment: Post-emergence herbicidal action, ECHCG; set-up: key: % herbicidal action vs untreated; 100 = plants died, 0 = like control; settings: for herbicidal action ECHCG: Dosage 80 g/ha; for Herbicidal action against ECHCG: post-emergence, dosage 80 g/ha
Description: as §1

Viola tricolor [10] = experiment: Pre-emergence herbicidal action, VIOTR; set-up: key to Herbicidal action against VIOTR: % activity: 100 = plants have died, 0 = like control plants; settings: for herbicidal action VIOTR: dosage 320 g/ha
Text: as §2

Stellaria media [11] = experiment: Post-emergence herbicidal action, STEME; set-up: key: % herbicidal action vs untreated; 100 = plants died, 0 = like control; settings: for herbicidal action STEME: Dosage 80 g/ha; for Herbicidal action against STEME: post-emergence, dosage 80 g/ha
Description: as §1

Abutilon theophrasti [12] = experiment: Pre-emergence herbicidal action, ABUTH; settings: dosage 320 g/ha
Text: as §2

Stellaria media [13] = experiment: Pre-emergence herbicidal action, STEME; settings: dosage 320 g/ha
Text: as §2

Echinochloa crus-galli [14] = experiment: Pre-emergence herbicidal action, ECHCG; settings: dosage 320 g/ha
Text: as §2

[15] = comparative experiment, 20 g of a.i./ha

| Compound | herbicidal action AMARE (Amaranthus retroflexus [2]) | herbicidal action VERPE (Veronica persica [3]) | herbicidal action MATIN (Matricaria inodora [7]) | herbicidal action VIOTR (Viola tricolor [10]) | herbicidal action ABUTH (Abutilon theophrasti [12]) | Herbicidal action against AMARE (Amaranthus retroflexus [1]) | Herbicidal action against VERPE (Veronica persica [5]) | Herbicidal action against VIOTR (Viola tricolor [6]; dosage 80 g/ha) | Herbicidal action against ECHCG (Echinochloa crus-galli [9]) | Herbicidal action against STEME (Stellaria media [11]) | Herbicidal action against ABUTH (Abutilon theophrasti [4]) | Herbicidal action against PHBPU (Pharbitis purpurea) | herbicidal action ECHCG (Echinochloa crus-galli [14]) | further results |
| --- | --- | --- | --- | --- | --- | --- | --- | --- | --- | --- | --- | --- | --- | --- |
| CSCc1c(S(C)(=O)=O)ccc(C(=O)Nc2nnnn2C)c1C [Example 1-37] | 100% | 90% | 80% | 100% | 80% | – | – | – | – | – | – | – | – | herbicidal action AMARE (Amaranthus retroflexus [1]): 100; herbicidal action ABUTH (Abutilon theophrasti [4]): 90; herbicidal action PHBPU (Pharbitis purpurea): 90; herbicidal action VERPE (Veronica persica [5]): 100; herbicidal action VIOTR (Viola tricolor [6]): 100; herbicidal action SETVI (Setaria viridis): 100; herbicidal action MATIN (Matricaria inodora [8]): 80; herbicidal action ECHCG (Echinochloa crus-galli [9]): 100; herbicidal action STEME (Stellaria media [11]): 100 |
| Cc1c(C(=O)Nc2nnnn2C)ccc(S(C)(=O)=O)c1C[S+](C)[O-] (stereo not shown) [Example 1-38] | 80% | 100% | 90% | – | – | 100 | 90 | 80 | 90 | 100 | – | – | – | herbicidal action STEME (Stellaria media [13]): 90% |
| Cc1c(C(=O)Nc2nnnn2C)ccc(Cl)c1C[S+](C)[O-] (stereo not shown) [Example 1-47] | – | – | – | – | – | – | – | – | – | – | – | – | – | Herbicidal action against AMARE (Amaranthus retroflexus [2]; [15]): 80; Herbicidal action against VIOTR (Viola tricolor [10]; [15]): 30 |
| Cn1nnnc1NC(=O)c1ccc(C(F)(F)F)c(CS(C)(=O)=O)c1S(C)(=O)=O [Example 1-199] | 90% | 100% | 90% | – | – | 80 | 80 | 90 | 80 | 90 | 90 | 80 | 90% | – |
| COc1c(C(=O)Nc2nnnn2C)ccc(Cl)c1C[S+](C)[O-] (stereo not shown) [Example 1-571] | 90% | 80% | – | – | 100% | – | – | – | – | – | – | – | – | herbicidal action AMARE (Amaranthus retroflexus [1]): 80; herbicidal action ABUTH (Abutilon theophrasti [4]): 80; herbicidal action PHBPU (Pharbitis purpurea): 90; herbicidal action VERPE (Veronica persica [5]): 90; herbicidal action VIOTR (Viola tricolor [6]): 80; herbicidal action SETVI (Setaria viridis): 80; herbicidal action MATIN (Matricaria inodora [8]): 80; herbicidal action ECHCG (Echinochloa crus-galli [9]): 90; herbicidal action STEME (Stellaria media [11]): 100 |
| COc1c(C(=O)Nc2nnnn2C)ccc(Cl)c1CS(C)(=O)=O [Example 1-572] | 100% | 80% | – | – | 80% | 90 | 90 | 80 | 90 | – | 80 | 80 | 80% | Herbicidal action against VIOTR (Viola tricolor [6]; comparative experiment, 5 g of a.i./ha): 50; Herbicidal action against SETVI (Setaria viridis): 80 |
| CCCn1nnnc1NC(=O)c1ccc(C(F)F)c(CS(C)(=O)=O)c1C [Example 3-109] | 100% | 90% | 100% | 100% | 100% | 100 | 100 | 100 | 90 | 100 | – | 90 | 100% | Herbicidal action against SETVI (Setaria viridis): 90; Herbicidal action against MATIN (Matricaria inodora [8]): 100 |
| CCCn1nnnc1NC(=O)c1ccc(I)c(CSC)c1Cl [Example 3-362] | – | – | – | 80% | – | 80 | – | – | 80 | – | 80 | – | – | Herbicidal action against MATIN (Matricaria inodora [8]): 90 |
